# Where a name gives a salt, the structure may show the parent alone. Read-outs that look alike come from different tables or passages of the source. Ends that are not written are not given here.
# How the values were obtained:
# mouse trachea = assay: Isometric tracheal tension measurement (organ bath); details: for IC50: cumulative concentrations, Hill function, read-out: IC50, relaxation of carbachol-precontracted trachea; for Relaxation response of trachea: TrpM channel blocker
# Protocol: Mice used in these studies were BALB/C mice from Jackson Labs. All animal procedures were reviewed and approved by the University of Texas Health Science Center at San Antonio Institutional Animal Care and Use Committee. For tracheal constriction studies, animals were deeply anesthetized with isoflurane and then sacrificed by cervical dislocation. Isometric tracheal contraction measurements were performed as previously described ([Semenov et al., 2012]). Trachea were removed and surrounding tissues dissected in ice-cold physiologic saline solution (PSS) consisting of 119 mM NaCl, 4.7 mM KCl, 2.0 mM CaCl2, 1.0 mM KH2PO4, 1.17 mM MgSO4, 18 mM NaHCO3, 0.026 mM EDTA, 11 mM glucose, and 12.5 mM sucrose. Trachea were cut below the pharynx and above the primary bronchus bifurcation. Two metal wires, attached to a force transducer and micrometer (Radnoti, LLC), were threaded into the lumen of the trachea. Trachea were placed into an oxygenated organ bath (95% O2, 5% CO2), at 37°C, pH 7.35 (after bubbling with 95% O2–5% CO2). Tracheal resting tension was readjusted to 1 gram over 1 h and then challenged with 67 mM potassium PSS with NaCl adjusted to 56.7 mM to maintain proper osmolarity (KPS). Trachea were challenged two or more times until reproducible contractile responses were achieved. All subsequent experimental drug responses were normalized to the KPS response. Bladder measurements were conducted in a similar manner as trachea with identical solutions. The bladder was excised and formed into a ring by cutting anterior and posterior portions before mounting on metal wires for force measurements. For the aorta preparation, the ascending thoracic aorta was excised and cut into 2–3 mm sections before mounting on wires for force measurements.
# [1] = biological target: T1, human M3 muscarinic acetylcholine receptor (Homo sapiens, UniProt P20309); assay: R-CEPIAer ER calcium assay of Gq-coupled receptor activation, M3-transfected CHO-K1 cells; type: cell-based; details: for Hill slope of inhibition curve, M3 receptor: Hill equation fit
# T1 construct: host or cells: CHO-K1 cells, stably transfected
# T1 sequence (P20309 whole entry): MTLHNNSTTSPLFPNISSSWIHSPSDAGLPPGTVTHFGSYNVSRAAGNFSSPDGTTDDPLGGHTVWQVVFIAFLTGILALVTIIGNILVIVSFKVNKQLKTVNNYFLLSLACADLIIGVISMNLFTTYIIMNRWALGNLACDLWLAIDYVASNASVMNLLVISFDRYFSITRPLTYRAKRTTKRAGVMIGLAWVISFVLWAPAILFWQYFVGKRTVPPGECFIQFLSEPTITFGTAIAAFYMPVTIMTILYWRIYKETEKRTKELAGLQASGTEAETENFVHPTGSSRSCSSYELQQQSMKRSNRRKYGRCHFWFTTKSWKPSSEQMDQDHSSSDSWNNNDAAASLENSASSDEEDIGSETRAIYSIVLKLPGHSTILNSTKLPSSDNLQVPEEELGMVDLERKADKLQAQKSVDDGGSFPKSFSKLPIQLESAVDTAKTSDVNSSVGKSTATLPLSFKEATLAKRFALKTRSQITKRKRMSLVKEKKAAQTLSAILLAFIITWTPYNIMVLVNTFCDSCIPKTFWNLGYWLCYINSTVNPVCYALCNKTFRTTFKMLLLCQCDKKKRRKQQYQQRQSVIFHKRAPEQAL
# Protocol: The binding of antagonists to Gq-coupled receptors was determined by measuring IP3-mediated calcium depletion from the endoplasmic reticulum (ER). This was accomplished using CHO-K1 cells stably transfected with human M3 muscarinic acetylcholine receptor (CEM3000000, cDNA Resource Center, Bloomsburg University) and R-CEPIAer, a low affinity ER-targeted calcium indicator fluorescent protein ([Suzuki et al., 2014]). R-CEPIAer reporting of ER calcium concentration was assessed using 564 nm excitation light (>590 long-pass emission) at 20 second intervals on a Nikon swept-field confocal microscope using slit-scan mode, 2x2 Binning, and 100 millisecond frames. F/Fmax was fluorescence intensity normalized to maximal fluorescence intensity during the experiment. The response of cells to Gq-coupled receptor agonist were measured as the change in F/Fmax (ΔF/Fmax) from preagonist value to fluorescence minimum during agonist application (that occurs by IP3-mediated ER calcium depletion). […] Perfusion of each agonist application was for 2 min, while the antagonist overlapped and preceded the second agonist application by 3 min. […] IC50 was calculated by assaying fractional inhibition using a dose-response of antagonist concentrations (i.e. Figure 1D ). For assays of other receptors such as the M1 and M5 muscarinic receptors, H1 histamine and P2Y1 purinergic receptors, these receptors were transiently co-transfected with the pCMV R-CEPIAer plasmid (a gift from Masamitsu Iino (Addgene plasmid # 58216; http://n2t.net/addgene:58216; RRID : Addgene_58216)) into CHO cells using polyethylenimine [according to previous methods ([Longo et al., 2013])]. IC50 and EC50 values were estimated by fitting the dose-response relationship to a Hill equation.
# To obtain a pKB using a Schild analysis ([Arunlakshana and Schild, 1959]), the acetylcholine EC50 was measured in the absence of UCL1684 and EC50′ measured in the presence of increasing concentrations of UCL1684. These values were used to calculate a dose ratio (DR = EC50′/EC50) for each UCL1684 concentration. The log(DR − 1) was plotted vs. log UCL1684 concentrations and fit to a linear equation where the theoretical X-intercept was used to estimate a pKB.
# mouse = tested on: mouse; set-up: method as in Gamboa-Vujicic et al., 1993; details: ref Gamboa-Vujicic et al., 1993, cited from earlier work
# CNG2 = tested on: CNG2; set-up: method as in Rosenbaum et al., 2004; details: ref Rosenbaum et al., 2004; read-out: IC50, block of CNG2 channels; cited from earlier work
# CNG1 = tested on: CNG1; set-up: method as in Rosenbaum et al., 2004; details: ref Rosenbaum et al., 2004; read-out: IC50, block of CNG1 channels; cited from earlier work
# SK potassium channels = details: cited from earlier work
# [2] = 5 μM antagonist, 0.5 μM carbachol, 0 = none, 1 = complete inhibition
molecule,measurement,setting,value
"Apamin: peptide blocker of SK channels (CNCKAPETALCARRCQQH; not fully specified (C-terminus, bridges); cysteine pairing not given here; UniProt P01500 28-45, looked up)",Relaxation of ASM contractions,"mouse trachea; 100 nM, 0.5 μM carbachol",did not relax ASM contractions
same,"Relaxation response of trachea, single dose","mouse trachea; 100 nM, 0.5 μM carbachol",−15 ± 7
"Cl.c1ccc2c(c1)CCC[C@H]2Nc1nc2ccccc2[nH]1 [NS8593, N-[(1R)-1,2,3,4-Tetrahydro-1-naphthalenyl]-1H-benzimidazol-2-amine hydrochloride]",IC50,[1],83 µM
same,"Hill slope of inhibition curve, M3 receptor",[1]; 0.5 μM carbachol,1.7 ± 0.35
same,Effect on M3 carbachol response,"[1]; 10 μM antagonist, 0.5 μM carbachol",undetectable
same,Fractional inhibition of second carbachol response,"[1]; 100 μM antagonist, 0.5 μM carbachol",0.60 ± 0.03
same,IC50,mouse trachea; 0.5 μM carbachol,31.5 ± 2 µM
same,Relaxation of precontracted trachea,"mouse trachea; 76.8 μM (highest concentration), 0.5 μM carbachol",complete relaxation
same,IC50,"mouse trachea; Mus musculus, 0.5 μM carbachol",31 µM
"Cc1cc(N)c2ccccc2[n+]1CCCCCCCCCC[n+]1c(C)cc(N)c2ccccc21.[Cl-].[Cl-] [dequalinium chloride, 1-[10-(4-imino-2-methyl-1,4-dihydroquinolin-1-yl)decyl]-2-methyl-1,4-dihydroquinolin-4-imine dihydrochloride]",LD50,mouse; intraperitoneal administration,18.3 mg/kg
same,LD50,mouse; oral administration,300 mg/kg
CCCCCCCCCCCCC/C=C/[C@@H](O)[C@@H](N)CO [d-erthyro-sphingosine],Relaxation response of trachea,mouse trachea; 8.1 μM,14.9 ± 6.0
CC(Cc1ccc(O)c(O)c1)C(C)Cc1ccc(O)c(O)c1 (stereo not drawn) [nordihydroguaiaretic acid],Relaxation response of trachea,mouse trachea; 25 μM,12.4 ± 8.5
"Cc1cc(=N)c2ccccc2n1CCCCCCCCCCn1c(C)cc(=N)c2ccccc21.Cl.Cl [dequalinium chloride, 1-[10-(4-imino-2-methyl-1,4-dihydroquinolin-1-yl)decyl]-2-methyl-1,4-dihydroquinolin-4-imine dihydrochloride]",IC50,CNG2,2.4 µM
same,IC50,[1],0.27 µM
same,"Hill slope of inhibition curve, M3 receptor",[1]; 0.5 μM carbachol,0.90 ± 0.29
same,Fractional inhibition of second carbachol response,[1]; [2],0.99 ± 0.003
same,IC50,CNG1,0.19 µM
same,IC50,"SK potassium channels; ref Castle et al., 1993, Dunn, 1994, read-out: IC50, block of SK potassium channels",1.5 µM
"c1ccc2c(c1)c1cc[n+]2CCCCC[n+]2ccc(c3ccccc32)NCCCCCN1 [UCL 1848, 8,14-Diaza-1,7(1,4)-diquinolinacyclotetradecaphane trifluoroacetate salt]",IC50,[1],1 µM
same,"Hill slope of inhibition curve, M3 receptor",[1]; 0.5 μM carbachol,1.47 ± 0.46
same,Fractional inhibition of second carbachol response,[1]; [2],0.98 ± 0.01
same,IC50,"SK potassium channels; effects on SK-dependent fast-afterhyperpolarizing currents, ref Campos Rosa et al., 1996, Chen et al., 2000, Blank et al., 2004, read-out: IC50, SK potassium channels",0.002 µM
same,IC50,"SK potassium channels; ref Chen et al., 2000, read-out: IC50, block of SK channels",0.0027 µM
